Patent US20080260833A1, “Drug delivery vehicle containing vesicles in a hydrogel base” (priority 2007, published 2008)
Where a name gives a salt, the structure may show the parent alone.

Legend:
Type in all cases: physicochemical
[1] = Passive diffusion from vesicles and hydrogel matrix (Example 1); conditions: PMOXA-b-PDMS-b-PMOXA vesicles in PVA-acrylamide hydrogel; water
Method: Vesicles are made out of the block copolymer poly(2-methyl-2-oxazoline)-b-polydimethylsiloxane-b-poly(2-methyl-2-oxazoline). Molecular weights of the segments are poly(2-methyl-2-oxazoline): 1300, and PDMS segment: 4400. The copolymer is made as described in U.S. Pat. No. 5,807,944 to Hirt et al.
A total of 50 mg of polymer was dissolved in 250 μl of ethanol (99%). The ethanolic solution was slowly added to 5 ml of bi-distilled water containing 0.2 M carboxy-fluorescein. A minimum of 4 h of stirring was allowed. Subsequently, the vesicles were extruded through 0.45 μm and 0.22 μm filters (Millex Durapore-PVDF, Millipore) 6 times. This procedure ensures formation of unilamellar vesicles with diameters dictated by the pore size of the extrusion filters and with a more monodisperse size distribution. Chromatographic separation was achieved on a Sepharose 4B column (1×30 cm) eluted with bi-distilled water. The slightly hazy fraction contains the vesicles.
The hydrogel matrix is based on a PVA-acrylamide macromer and a UV-initiator as taught by U.S. Pat. No. 7,070,809 to Goupil et al., Example 5a. […]
3 g of the vehicle are immersed in 5 ml of water. The water is exchanged every hour for the first 8 hours and every 24 hours thereafter and the fluorescence of the supernatant is measured in order to calculate the amount of carboxy-fluorescein released from the vehicle.

[2] = Release of free lidocaine from the PVA-acrylamide hydrogel (Example 2); conditions: in 8 hours; 3 g UV-crosslinked hydrogel in 5 ml buffer; UV at 263 nm
Method: (§1) The hydrogel matrix is the same as Example 1.
(§2) The vesicles are loaded with lidocaine HCl, via a phase transfer method from chloroform to water, and cleaned over a Sepharose column. The resulting vesicles formulation is mixed with the PVA-acrylamide macromer and Irgacure 2959.3 g of the hydrogel is crosslinked with UV and immersed in 5 ml buffer solution at pH 4. The 5 ml buffer is exchanged after 8-16 h with 5 ml buffer solution at 0.5 pH units higher and left for another 8-16 h. This is repeated until pH 6.5 is reached. About 80% of free lidocaine is released from the hydrogel in 8 hours. The lidocaine HCl release is measured with UV at 263 nm and compared to a standard curve.

[3] = Release from temperature sensitive vesicles in hydrogel (Example 4); conditions: cooled from 40 C to room temperature, 10 ml water, 12 hours
Method: The vesicles are loaded with lidocaine HCl in a buffered solution at pH 6.5 above 40 C and cleaned over a Sepharose column. The resulting vesicles are mixed into 3 g of hydrogel at a solid content of 7% at 40 C. The hydrogel is cooled to room temperature and immersed in 10 ml of water. […] The release is measured with UV at 263 nm over 12 hours.

[4] = Release from vesicles crosslinked into the hydrogel (Example 5); conditions: buffer pH 6.5, 50 C for 24 hours or taken out of solution over night
From the text: Vesicles are made from the block copolymer HO-poly(2-methyl-2-oxazoline)-b-polydimethylsiloxane-b-poly(2-methyl-2-oxazoline)-OH modified with isocyanto-ethylmetacrylate at the OH endgroups as taught in U.S. Pat. No. 5,807,944 to Hirt et al.
The hydrogel matrix is made as described in Example 1.
The vesicles are loaded with a hydrophilic lidocaine HCl and cleaned over a Sepharose column as taught above. The resulting vesicles formulation is mixed with the PVA-acrylamide macromer and Irgacure 2959.3 times 3 g of the hydrogel is crosslinked with UV and immersed in 10 ml buffer solution at pH 6.5 each. One sample is exposed to 50 C for 24 hours and left for another 24 hours. One sample is taken out of solution over night and put back into the buffer for 24 hours. Solutions are analyzed with UV for the lidocaine release and compared to the untreated solution.

[5] = Release from pH responsive vesicles in hydrogel (Example 2); conditions: poly(2-vinylpyridine-b-ethylene oxide) vesicles in hydrogel; buffer pH 4 to 6.5 in 0.5 pH steps
From the text: The vesicles are made from the block copolymer poly(2-vinylpyridine-b-ethylene oxide) (NP2VP:29,NPEO: 15) This polymer can be made as described in Foerster et al., Langmuir, 2006, 22, 5843-5847.
as §1, §2

Compound	passive release of active agent out of the vesicles and hydrogel matrix [1]	free lidocaine released from the hydrogel [2]	release of vesicle content at room temperature [3]	lidocaine release after shape change of the hydrogel [4]	lidocaine HCl release out of the vesicles in response to a change in pH [5]
Carboxy-fluorescein	slowly diffuse out of the vesicles and then be released from the hydrogel				
CCN(CC)CC(=O)Nc1c(C)cccc1C [lidocaine HCl]		About 80%	release their content slowly	ruptured the vesicles and their content is released	released slowly with increasing pH, with an increased rate after pH 5
